Measurements taken from patent US11479565B2, “Process for preparing substituted imidazole derivatives” (BAYER AKTIENGESELLSCHAFT, priority 2018, dated 2022).

Assays:
[1] = log P[n] by HPLC on reversed-phase column (C18), LC-UV in the neutral range; type: physicochemical; conditions: 79 mg/l ammonium carbonate in water and acetonitrile, gradient 10% to 95% acetonitrile, EEC Directive 79/831 Annex V.A8
Experimental: (§1) The log values were determined according to EEC Directive 79/831 Annex V.A8 by HPLC (high-performance liquid chromatography) on a reversed-phase column (C18) using the following methods: The log P[n] value is determined by LC-UV measurement in the neutral range using 79 mg/l ammonium carbonate in water and acetonitrile as mobile phases (linear gradient from 10% acetonitrile to 95% acetonitrile). Calibration was carried out using a homologous series of straight-chain alkan-2-ones (having 3 to 16 carbon atoms) with known log values. The values between successive alkanones are determined by linear regression.

[2] = log P[a] by HPLC on reversed-phase column (C18), LC-UV in the acidic range; type: physicochemical; conditions: 0.9 ml/l formic acid in water and 1.0 ml/l formic acid in acetonitrile, gradient 10% to 95% acetonitrile, EEC Directive 79/831 Annex V.A8
Experimental: as §1, with “P[a]” for “P[n]”, “acidic” for “neutral”, “0.9 […] formic acid” for “79 mg/l ammonium carbonate”, “and 1.0 ml/l formic acid in” for “and”

SMILES	chromatographic logP [1]	chromatographic logP [2]
CCSc1c(-c2nc3cc(C(F)(F)F)nnc3n2C)nc(Br)n1C [Example 1, 6-[2-bromo-5-(ethylsulfanyl)-1-methyl-1H-imidazol-4-yl]-7-methyl-3-(trifluoromethyl)-7H-imidazo[4,5-]pyridazine]	3.01	3.14
CCSc1c(-c2nc3cc(C(F)(F)C(F)(F)F)nnc3n2C)nc(Br)n1C [Example 2, 6-[2-bromo-5-(ethylsulfanyl)-1-methyl-1H-imidazol-4-yl]-7-methyl-3-(pentafluoroethyl)-7H-imidazo[4,5-c]pyridazine]	3.66	3.8
CCS(=O)(=O)c1c(-c2nc3cc(C(F)(F)C(F)(F)F)nnc3n2C)nc(Br)n1C [Example 3, 6-[2-bromo-5-(ethylsulfonyl)-1-methyl-1H-imidazol-4-yl]-7-methyl-3-(pentafluoroethyl)-7H-imidazo[4,5-c]pyridazine]	2.76	2.8
CCSc1c(-c2nc3cc(C(F)(F)C(F)(F)F)ncc3n2C)nc(Br)n1C [Example 4, 2-[2-bromo-5-(ethylsulfanyl)-1-methyl-1H-imidazol-4-yl]-3-methyl-6-(pentafluoroethyl)-3H-imidazo[4,5-c]pyridine]	3.51	3.63
CCSc1c(-c2nc3cc(C(F)(F)C(F)(F)F)nnc3n2C)nc(-c2ccc(Cl)nn2)n1C [Example 5, 6-[2-(6-chloropyridazin-3-yl)-5-(ethylsulfanyl)-1-methyl-1H-imidazol-4-yl]-7-methyl-3-(pentafluoroethyl)-7H-imidazo[4,5-c]pyridazine]	4.01	4.13
CCSc1c(-c2nc3cc(C(F)(F)C(F)(F)F)nnc3n2C)nc(-c2ccc(C#N)cn2)n1C [Example 6, 6-{5-(ethylsulfanyl)-1-methyl-4-[7-methyl-3-(pentafluoroethyl)-7H-imidazo[4,5-c]pyridazin-6-yl]-1H-imidazol-2-yl}nicotinonitrile]	4.2	4.32
